Usually viability, T/C stands for the result in the treated group divided by that in the control group, in per cent.

Structures are written as SMILES.
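Further: compound exposure lasted 7 days after spheroids had grown for 3 days.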

The first experiment has as its system 699152-130-R-J1-PDC complex spheroid growth. Kind of experiment: Anticancer human tumor 699152-130-R-J1-PDC patient-derived pancreatic carcinoma cell line growth inhibition [AhR]. The following applies: second compound 3.16 µM; first compound 0.316 µM; hits give low values. In outline: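 Spheroids combined tumor cells with HUVEC endothelial cells and human MSCs as stroma. AhR antagonists were paired with standard or investigational drugs, each dosed in half-log steps down from near clinical Cmax, or from 10 microM where Cmax was unknown.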
As to `COc1cc(Nc2ncc3c(n2)-c2ccc(Cl)cc2C(c2c(F)cccc2OC)=NC3)ccc1C(=O)O` + Cc1cncc(-c2nc(NCCc3c[nH]c4ccccc34)c3ncn(C(C)C)c3n2)c1, the viability, T/C is 84.8%.

Still in this experiment, the particulars now being: second compound 3.16 µM; first compound 1 µM; hits give low values.
For the compound `COc1ccc([C@@H](O)c2cc(-c3ncnc4cc(N5CCOCC5)ccc34)c(F)cc2Cl)nn1` + CC(CO)NC(=O)c1cc(-c2ccc(Cl)cc2)nn(-c2cnn(C)c2)c1=O, the viability, T/C was 70.6%.

Turning to `O=C(C=Cc1cccc(S(=O)(=O)Nc2ccccc2)c1)NO` + Cc1cncc(-c2nc(NCCc3c[nH]c4ccccc34)c3ncn(C(C)C)c3n2)c1, the viability, T/C was 86.4%.

Take `CC1COCCN1c1cc(C2(S(C)(=N)=O)CC2)nc(-c2ccnc3[nH]ccc23)n1` (configuration not stated) + CC(CO)NC(=O)c1cc(-c2ccc(Cl)cc2)nn(-c2cnn(C)c2)c1=O: the viability, T/C was 86.4%.

On to `COc1cc(Nc2ncc3c(n2)-c2ccc(Cl)cc2C(c2c(F)cccc2OC)=NC3)ccc1C(=O)O` + Cc1cncc(-c2nc(NCCc3c[nH]c4ccccc34)c3ncn(C(C)C)c3n2)c1, for which the viability, T/C is 64.6%.

Still in this experiment, the particulars now being: second compound 3.16 µM; first compound 3.16 µM; hits give low values.
On to `COc1ccc([C@@H](O)c2cc(-c3ncnc4cc(N5CCOCC5)ccc34)c(F)cc2Cl)nn1` + CC(CO)NC(=O)c1cc(-c2ccc(Cl)cc2)nn(-c2cnn(C)c2)c1=O, for which the viability, T/C is 58.8%.

With `O=C(C=Cc1cccc(S(=O)(=O)Nc2ccccc2)c1)NO` + Cc1cncc(-c2nc(NCCc3c[nH]c4ccccc34)c3ncn(C(C)C)c3n2)c1, the viability, T/C was 81.8%.

On to `CC1COCCN1c1cc(C2(S(C)(=N)=O)CC2)nc(-c2ccnc3[nH]ccc23)n1` (configuration not stated) + CC(CO)NC(=O)c1cc(-c2ccc(Cl)cc2)nn(-c2cnn(C)c2)c1=O, for which the viability, T/C is 73.4%.

For `COc1cc(Nc2ncc3c(n2)-c2ccc(Cl)cc2C(c2c(F)cccc2OC)=NC3)ccc1C(=O)O` + Cc1cncc(-c2nc(NCCc3c[nH]c4ccccc34)c3ncn(C(C)C)c3n2)c1, the viability, T/C was 64.2%.

Staying with this experiment, now noted: second compound 3.16 µM; first compound 10 µM; hits give low values.
As to `COc1ccc([C@@H](O)c2cc(-c3ncnc4cc(N5CCOCC5)ccc34)c(F)cc2Cl)nn1` + CC(CO)NC(=O)c1cc(-c2ccc(Cl)cc2)nn(-c2cnn(C)c2)c1=O, the viability, T/C is 34.8%.

Turning to `O=C(C=Cc1cccc(S(=O)(=O)Nc2ccccc2)c1)NO` + Cc1cncc(-c2nc(NCCc3c[nH]c4ccccc34)c3ncn(C(C)C)c3n2)c1, the viability, T/C is 79%.

Regarding `CC1COCCN1c1cc(C2(S(C)(=N)=O)CC2)nc(-c2ccnc3[nH]ccc23)n1` (configuration not stated) + CC(CO)NC(=O)c1cc(-c2ccc(Cl)cc2)nn(-c2cnn(C)c2)c1=O, the viability, T/C is 62.8%.

As to `COc1cc(Nc2ncc3c(n2)-c2ccc(Cl)cc2C(c2c(F)cccc2OC)=NC3)ccc1C(=O)O` + Cc1cncc(-c2nc(NCCc3c[nH]c4ccccc34)c3ncn(C(C)C)c3n2)c1, the viability, T/C is 57.9%.

Staying with this experiment, now noted: second compound 10 µM; first compound 0.0316 µM; hits give low values.
For `COc1ccc([C@@H](O)c2cc(-c3ncnc4cc(N5CCOCC5)ccc34)c(F)cc2Cl)nn1` + CC(CO)NC(=O)c1cc(-c2ccc(Cl)cc2)nn(-c2cnn(C)c2)c1=O, the viability, T/C was 88.8%.

Take `O=C(C=Cc1cccc(S(=O)(=O)Nc2ccccc2)c1)NO` + Cc1cncc(-c2nc(NCCc3c[nH]c4ccccc34)c3ncn(C(C)C)c3n2)c1: the viability, T/C is 27.2%.

Turning to `CC1COCCN1c1cc(C2(S(C)(=N)=O)CC2)nc(-c2ccnc3[nH]ccc23)n1` (configuration not stated) + CC(CO)NC(=O)c1cc(-c2ccc(Cl)cc2)nn(-c2cnn(C)c2)c1=O, the viability, T/C is 78.5%.

With `COc1cc(Nc2ncc3c(n2)-c2ccc(Cl)cc2C(c2c(F)cccc2OC)=NC3)ccc1C(=O)O` + Cc1cncc(-c2nc(NCCc3c[nH]c4ccccc34)c3ncn(C(C)C)c3n2)c1, the viability, T/C is 23.8%.

Staying with this experiment, now noted: second compound 10 µM; first compound 0.1 µM; hits give low values.
`COc1ccc([C@@H](O)c2cc(-c3ncnc4cc(N5CCOCC5)ccc34)c(F)cc2Cl)nn1` + CC(CO)NC(=O)c1cc(-c2ccc(Cl)cc2)nn(-c2cnn(C)c2)c1=O: the viability, T/C is 87.9%.

For `O=C(C=Cc1cccc(S(=O)(=O)Nc2ccccc2)c1)NO` + Cc1cncc(-c2nc(NCCc3c[nH]c4ccccc34)c3ncn(C(C)C)c3n2)c1, the viability, T/C is 20.6%.

Turning to `CC1COCCN1c1cc(C2(S(C)(=N)=O)CC2)nc(-c2ccnc3[nH]ccc23)n1` (configuration not stated) + CC(CO)NC(=O)c1cc(-c2ccc(Cl)cc2)nn(-c2cnn(C)c2)c1=O, the viability, T/C is 82.2%.

In the case of `COc1cc(Nc2ncc3c(n2)-c2ccc(Cl)cc2C(c2c(F)cccc2OC)=NC3)ccc1C(=O)O` + Cc1cncc(-c2nc(NCCc3c[nH]c4ccccc34)c3ncn(C(C)C)c3n2)c1, the viability, T/C is 21.3%.

The experiment is the same for the next values; noted with them: second compound 10 µM; first compound 0.316 µM; hits give low values.
In the case of `COc1ccc([C@@H](O)c2cc(-c3ncnc4cc(N5CCOCC5)ccc34)c(F)cc2Cl)nn1` + CC(CO)NC(=O)c1cc(-c2ccc(Cl)cc2)nn(-c2cnn(C)c2)c1=O, the viability, T/C was 68.9%.

Regarding `O=C(C=Cc1cccc(S(=O)(=O)Nc2ccccc2)c1)NO` + Cc1cncc(-c2nc(NCCc3c[nH]c4ccccc34)c3ncn(C(C)C)c3n2)c1, the viability, T/C is 21.4%.

As for `CC1COCCN1c1cc(C2(S(C)(=N)=O)CC2)nc(-c2ccnc3[nH]ccc23)n1` (configuration not stated) + CC(CO)NC(=O)c1cc(-c2ccc(Cl)cc2)nn(-c2cnn(C)c2)c1=O, the viability, T/C was 91.3%.

For `COc1cc(Nc2ncc3c(n2)-c2ccc(Cl)cc2C(c2c(F)cccc2OC)=NC3)ccc1C(=O)O` + Cc1cncc(-c2nc(NCCc3c[nH]c4ccccc34)c3ncn(C(C)C)c3n2)c1, the viability, T/C is 21.3%.

The same experiment, now with this note: second compound 10 µM; first compound 1 µM; hits give low values.
As to `COc1ccc([C@@H](O)c2cc(-c3ncnc4cc(N5CCOCC5)ccc34)c(F)cc2Cl)nn1` + CC(CO)NC(=O)c1cc(-c2ccc(Cl)cc2)nn(-c2cnn(C)c2)c1=O, the viability, T/C was 63.4%.

With `O=C(C=Cc1cccc(S(=O)(=O)Nc2ccccc2)c1)NO` + Cc1cncc(-c2nc(NCCc3c[nH]c4ccccc34)c3ncn(C(C)C)c3n2)c1, the viability, T/C was 19.4%.

On to `CC1COCCN1c1cc(C2(S(C)(=N)=O)CC2)nc(-c2ccnc3[nH]ccc23)n1` (configuration not stated) + CC(CO)NC(=O)c1cc(-c2ccc(Cl)cc2)nn(-c2cnn(C)c2)c1=O, for which the viability, T/C was 76.4%.

With `COc1cc(Nc2ncc3c(n2)-c2ccc(Cl)cc2C(c2c(F)cccc2OC)=NC3)ccc1C(=O)O` + Cc1cncc(-c2nc(NCCc3c[nH]c4ccccc34)c3ncn(C(C)C)c3n2)c1, the viability, T/C is 16.9%.

Still in this experiment, the particulars now being: second compound 10 µM; first compound 3.16 µM; hits give low values.
On to `COc1ccc([C@@H](O)c2cc(-c3ncnc4cc(N5CCOCC5)ccc34)c(F)cc2Cl)nn1` + CC(CO)NC(=O)c1cc(-c2ccc(Cl)cc2)nn(-c2cnn(C)c2)c1=O, for which the viability, T/C was 47.1%.

For `O=C(C=Cc1cccc(S(=O)(=O)Nc2ccccc2)c1)NO` + Cc1cncc(-c2nc(NCCc3c[nH]c4ccccc34)c3ncn(C(C)C)c3n2)c1, the viability, T/C is 17%.

For `CC1COCCN1c1cc(C2(S(C)(=N)=O)CC2)nc(-c2ccnc3[nH]ccc23)n1` (configuration not stated) + CC(CO)NC(=O)c1cc(-c2ccc(Cl)cc2)nn(-c2cnn(C)c2)c1=O, the viability, T/C was 72.5%.

On to `COc1cc(Nc2ncc3c(n2)-c2ccc(Cl)cc2C(c2c(F)cccc2OC)=NC3)ccc1C(=O)O` + Cc1cncc(-c2nc(NCCc3c[nH]c4ccccc34)c3ncn(C(C)C)c3n2)c1, for which the viability, T/C is 16.3%.

The experiment is the same for the next values; noted with them: second compound 10 µM; first compound 10 µM; hits give low values.
As for `COc1ccc([C@@H](O)c2cc(-c3ncnc4cc(N5CCOCC5)ccc34)c(F)cc2Cl)nn1` + CC(CO)NC(=O)c1cc(-c2ccc(Cl)cc2)nn(-c2cnn(C)c2)c1=O, the viability, T/C is 38.1%.

As to `O=C(C=Cc1cccc(S(=O)(=O)Nc2ccccc2)c1)NO` + Cc1cncc(-c2nc(NCCc3c[nH]c4ccccc34)c3ncn(C(C)C)c3n2)c1, the viability, T/C is 10.1%.

With `CC1COCCN1c1cc(C2(S(C)(=N)=O)CC2)nc(-c2ccnc3[nH]ccc23)n1` (configuration not stated) + CC(CO)NC(=O)c1cc(-c2ccc(Cl)cc2)nn(-c2cnn(C)c2)c1=O, the viability, T/C is 68.2%.

As for `COc1cc(Nc2ncc3c(n2)-c2ccc(Cl)cc2C(c2c(F)cccc2OC)=NC3)ccc1C(=O)O` + Cc1cncc(-c2nc(NCCc3c[nH]c4ccccc34)c3ncn(C(C)C)c3n2)c1, the viability, T/C was 22.3%.
